Values quoted from earlier work as cited in US20030139355A1, “Medicine for orthopaedic surgical application and a treating method using thereof” (priority 2001, published 2003).

Legend:
selectins = conditions: in vitro; J. Biol. Chem. 1994
[1] = test system: ischemia reperfusion disorder in liver; conditions: literature reports

CC1(C)[C@@H](O[C@H]2O[C@H](C(=O)O)[C@@H](O)[C@H](O)[C@H]2O[C@@H]2O[C@H](C(=O)O)[C@@H](O)[C@H](O)[C@H]2O)CC[C@]2(C)[C@H]3C(=O)C=C4[C@@H]5C[C@@](C)(C(=O)O)CC[C@]5(C)CC[C@@]4(C)[C@]3(C)CC[C@@H]12 [glycyrrhizin]
Binding between Sialyl-Lewis X and selectins (selectins): prevents binding between Sialyl-Lewis X and selectins | Inhibitory effects on ischemia reperfusion disorder in liver [1]: effectively exhibits inhibitory effects
